Assay results as given in a melting point compilation (Tetko et al.; mined from patent text by program, amines drawn as free bases though some values may be those of a salt).

Row | Compound | melting point [°C]
1 | CC(=O)Nc1cnc(-c2cc(Cl)cc(Cl)c2Cl)c(NC(=O)C(C)C)n1 | 230 to 232
2 | CCOC(=O)Cc1c2cc(F)ccc2n2c(-c3ccc(S(C)=O)cc3)nccc12 (centres undefined) | 133 to 135
3 | CCCCC(=O)NCc1ccc(I)cc1 | 80 to 81
4 | CCC(=O)Nc1ccnn1-c1c(Cl)cc(C(F)(F)F)cc1Cl | 125
5 | CC(C)(C)c1cc(OCCCCc2nnn[nH]2)cc(C(C)(C)C)c1 | 140 to 141
6 | CCOC(=O)c1ccc(-c2ccc(-c3ccccc3)c(-c3cc4c(cc3O)C(C)(C)CCC4(C)C)c2)cc1 | 145
7 | Cc1nc(N2CCN(Cc3ccc(OC(F)(F)F)cc3)C2=O)sc1C(=O)NCc1cccnc1 | 165 to 166
8 | NNc1c(F)cc(F)c(F)c1F | 63 to 65
9 | CCN1CCc2cc(Nc3ncc(Cl)c(N[C@@H]4CCCC[C@H]4NS(C)(=O)=O)n3)c(OC)cc2CC1=O | 139 to 150
10 | CC(C)(C)c1ccc(O)c(C=O)c1 | 81
11 | N#Cc1ncn2c1[C@@H]1CCN1C(=O)c1c(Br)cccc1-2 | 133 to 136
12 | O=C(NC1CCCCC1)c1ccccc1I | 148 to 149
13 | COC(=O)c1cc2cc(OCCCl)ccc2s1 | 116 to 117
14 | N#Cc1ccc(NS(=O)(=O)c2ccc(Cl)cc2)cc1 | 182 to 184
15 | CSc1nn(-c2c(Cl)cc(C(F)(F)F)cc2Cl)c(N)c1C(=O)c1cc(C)ccc1C | 130 to 132
16 | Fc1ccc(-n2c(OCCN3CCCC3)cc3ccc(Cl)cc32)cc1 | 60 to 62
17 | Cc1cc(C(Cc2ccc(CCCc3nc(-c4ccccc4)oc3C)cc2)C(=O)O)on1 (centres undefined) | 133 to 135
18 | CC1=NN(c2ccc(CO)cc2)C(=O)C1 | 139 to 140
19 | Nc1ccc(-c2noc(-c3cnn4c(C(F)(F)F)cc(-c5ccc(F)c(F)c5)nc34)n2)cn1 | 262
20 | COC(=O)c1ccc(OCCCCCCc2ccc3cc(OCc4ccccc4)c(OCc4ccccc4)cc3c2)cc1 | 121 to 125
21 | COC(=O)C(c1ccccc1)N1CCC(c2ccc(NC(=O)c3ccccc3-c3ccc(C(F)(F)F)cc3)cc2)CC1 (centres undefined) | 138
22 | CC(Oc1c(C(=O)O)cc(Cl)cc1[N+](=O)[O-])C(=O)O (centres undefined) | 190
23 | Cc1ccc(S(=O)(=O)OCC2CCc3sc(C(C)C)nc3C2)cc1 (centres undefined) | 82 to 83
24 | Nc1cc(CCC(=O)NC2CCc3ccccc32)ccc1O (centres undefined) | 130 to 131
25 | O=C(O)c1cc(O)c2c3c(cc(Br)c2n1)S(=O)c1ccccc1-3 (centres undefined) | 289 to 290

Row | Compound | melting point [°C]
26 | CCOC(=O)c1cnc(CCOC)nc1O | 115 to 118
27 | CCCCCCCCCCCCn1nnc(C(C(=O)Nc2cc(C)c(O)c(C)c2C)c2ccccc2)n1 (single isomer, unassigned; (+)) | 105
28 | COc1ccc(S(=O)(=O)C(C(=O)NO)C(C)C)cc1 (centres undefined) | 220
29 | CN1Cc2c(C(N)=O)ncn2-c2ccc(Cl)cc2C1=O | 275 to 277
30 | CC(C)(C)c1cc(C(c2ccc([N+](=O)[O-])cc2)N2CCCCC2)cc(C(C)(C)C)c1O (centres undefined) | 147 to 148
31 | CC1NN(Cc2ccc(Cl)cc2)C(=O)NC1=O (centres undefined) | 155
32 | CC(=O)NC[C@H]1CN(c2ccc(C3=CCN(C(=O)COC(C)=O)CC3)c(F)c2)C(=O)O1 | 188 to 191
33 | CCSc1ccc(-c2cccnc2)c2c1C(=O)CC(C)C2 (centres undefined) | 140 to 142
34 | CC(C)CNc1nc(-c2ccccc2)c(Cl)n2c(Br)cnc12 | 138
35 | CCCc1c(OCCCCOc2cccc(Sc3ccc(C(=O)O)cc3)c2)ccc(C(C)=O)c1O | 100 to 102
36 | CS(=O)(=O)N[C@@H]1CN2C(=O)N(c3cc(Cl)nc(Cl)c3)C(=O)[C@@]2(Cc2ccc(OC(F)(F)F)cc2)C1 | 207
37 | Cn1c(=O)c(C(=O)NC2CCCCC2)c(O)c2ccccc21 | 145
38 | CCC(CC)c1ccc(Cl)c2nc3n(c12)CC(C)N3c1cnc(N(C)C)cc1C (centres undefined) | 204 to 206
39 | Cc1cccc(Nc2cc(Nc3ccc(O)cc3)ncn2)c1 | 242 to 245
40 | NS(=O)(=O)c1ccc2c(c1)C=C(C(=O)O)C(C(F)(F)F)O2 (centres undefined) | 188 to 190
41 | N#CCc1ccc(F)cc1I | 52 to 53
42 | CC(C)(C)OC(=O)N(C[C@H](O)COc1ccc(O)cc1)C1CNC1 | 130 to 134
43 | O=C(O)CCC1CCN(C(=O)OCc2ccc([N+](=O)[O-])cc2)CC1 | 98 to 99
44 | COc1cc(CC(=O)NC(CC(C)C)c2cc(CC(NC(C)=O)C(=O)O)on2)ccc1NC(=O)Nc1ccccc1C (centres undefined) | 123 to 125
45 | CC(C)(C)C(=O)N[C@@H](Cc1ccccc1)C(=O)N[C@@H](Cc1ccccc1)C(=O)NC(CO)Cc1c[nH]cn1 (some centres undefined) | 124 to 130
46 | [O-][N+]1=C(c2ccccc2Cl)c2cc(Cl)ccc2-c2ncncc2C1 | 216 to 217
47 | CCc1c(-c2ccc(OC)cc2)c2c(C(=O)OC)c(C(=O)OC)c3cc(OC)cc1n32 | 153 to 155
48 | CCCCCCCCCCCCOC(=O)c1ccc(O)c([N+](=O)[O-])c1 | 70
49 | CCCc1nc(C#N)c(N)n1CC(C)C | 135 to 136
50 | CC(C)(C)NC(=O)c1ccccc1NS(=O)(=O)C(F)(F)F | 108 to 110

Row | Compound | melting point [°C]
51 | CS(=O)(=O)c1cccc(Br)c1 | 63 to 64
52 | Cn1c(=O)nc(-c2ccccc2)c2cc([N+](=O)[O-])ccc21 | 261 to 264
53 | N#CC1=CCN(c2ncccc2F)CC1 | 76 to 77
54 | Cc1cnc2c(C#N)c(-c3ccc(S(=O)(=O)NC4(C(F)(F)F)CC4)cn3)n(C3CCCC3)c2c1 | 249 to 251
55 | CC(C)c1ccc(N(Cc2ccc(OCC(F)(F)F)cc2)C(=O)Nc2c(C(C)C)cccc2C(C)C)cc1 | 138
56 | CC(C)(C)c1ccc(OC(Cc2ccc(OCCNC(=O)c3ccc(-c4ccccn4)cc3)cc2)C(=O)O)cc1 (centres undefined) | 94 to 96
57 | Cc1c(Br)nc(Br)c(=O)n1C | 119 to 120
58 | CC(=O)OCCCN(C)CCN(C)C(=O)[C@@H]1CCCN1S(=O)(=O)c1ccc(Cl)c(COc2cccc3c(-n4ccnc4)cc(C)nc23)c1Cl | 75
59 | CCc1c(C)nc(-c2ccccc2)nc1NCC(=O)N(C)c1ccc(Cl)cc1 | 142 to 143
60 | CC1(C)OC(=C(C#N)C#N)C(C#N)=C1c1ccc(-c2cn(-c3ccccc3)nn2)cc1 | 298
61 | O=C(O)c1cc(OCc2ccccc2)ccc1OC1CCOC1=O (centres undefined) | 120 to 122
62 | OC[C@H](O)[C@@H](O)[C@H](O)[C@H](O)C=NN(Cc1ccccc1)c1ccccc1 | 124 to 128
63 | Cc1ccc(C2=CCNCC2)nc1 | 78 to 80
64 | COC(=O)Nc1cc(C(C)(C)C)[nH]n1 | 177
65 | COc1cc2c(cc1OC)NC(=O)N(CCCN(C)CCCS(=O)(=O)c1ccccc1)CC2 | 118 to 121
66 | NS(=O)(=O)c1cccc(NC(=O)c2cnn3ccc(-c4ccc(C(F)(F)F)cc4)nc23)c1 | 318 to 320
67 | ClCC1COC(Cc2ccc(Cl)cc2)(c2ccccc2)O1 (centres undefined) | 65
68 | COc1ccc(S(=O)(=O)C2(C(=O)NO)CCN(Cc3ccccc3)CC2)cc1 | 90 to 95
69 | Cc1cc(-c2cc(=O)c3cccnc3o2)cc(C)c1OCC(=O)O | 280
70 | COc1ccccc1NC(=O)c1sccc1S(=O)(=O)Nc1onc(C)c1Br | 74 to 80
71 | O=C(NN1CCN(CCc2c[nH]c3ccccc23)CC1)c1ccccc1 | 227 to 229
72 | CCCCc1nccc2c([N+](=O)[O-])cccc12 | 69 to 69.5
73 | Cc1c(N)c(C)c2c(c1-c1ccccc1)OCC2c1ccc(C(C)C)cc1 (centres undefined) | 101 to 102
74 | Cc1ccccc1Oc1ccccc1C(=O)O | 133 to 134
75 | COc1ccc2ccccc2c1CONC(C)=O | 112

Row | Compound | melting point [°C]
76 | Cc1cc(F)c(-n2c(=O)oc3c(c2=O)CCC3)cc1OC(C)C | 131 to 133
77 | O=C(/C=C/c1ccc(O)c(O)c1)Nc1ccccc1C(=O)O | 204 to 206
78 | FC(F)(F)Sc1ccc(/C=C/c2nc(COc3ccc(-c4nc(Cn5ccnc5)co4)cc3)co2)cc1 | 144 to 145
79 | COc1ccc2[nH]cc(CC3=CCCN(CCCC(=O)c4cccs4)C3)c2c1 | 140 to 150
80 | Cc1c(Cl)n(C)n(C)c1=O | 37 to 38
81 | N#CC(c1ccccc1)(c1ccccc1)c1ccc([N+](=O)[O-])cn1 | 94 to 99
82 | O=C(OCc1ccc([N+](=O)[O-])cc1)N1CCC(I)CC1 | 102 to 104
83 | FC(F)(F)c1ccc(C=CC(C=Cc2ccc(C(F)(F)F)cc2)=NNC2=NCCCN2)cc1 | 196 to 197
84 | COc1ccc(CCOCCCCCCNCC(O)c2ccc(O)c(CCO)c2)cc1 (centres undefined) | 84 to 85
85 | O=C(O)c1ccc(OCCCc2ccc(O)c(O)c2)cc1 | 180 to 185
86 | CCCCc1nc2ccccc2n1CCC(=O)O | 177 to 178
87 | Fc1cc2c(Nc3ccc(F)c(C(F)(F)F)c3)ncnc2cn1 | 247 to 249
88 | FC(F)(F)Oc1ccc(-c2coc3ccc(-c4nnc(N5CCNCC5)o4)cc23)cc1 | 138 to 140
89 | O=S(=O)(NCCN1CCOCC1)C(F)(F)F | 106 to 108
90 | CCc1nc2cc(S(N)(=O)=O)c(Cl)cc2n1-c1ccc(CCNC(=O)NS(=O)(=O)c2ccc(C)cc2)cc1 | 163 to 170
91 | COc1cc(Cl)c(N=C=S)cc1C(=O)Nc1c(C)cccc1C | 191 to 192
92 | O=C1c2cc3ccccc3cc2OC12CC2 | 127 to 129
93 | CCOC(=O)Cc1ccc(-n2cccn2)cc1 | 49
94 | CCOc1ccn2nc(S(=O)(=O)Cl)nc2n1 | 91 to 96
95 | CCOCCc1nc(NS(=O)(=O)c2cccc(Cl)c2C)sc1CN(C)C | 152 to 153
96 | CN(C)Cc1ccccc1-c1ccc(Br)cc1 | 60 to 62
97 | O=C(O)c1cn(-c2ccccc2)c2c(F)c(F)c(F)cc2c1=O | 88 to 90
98 | NS(=O)(=O)c1ccc(-c2cc(-c3nc(-c4ccc(F)c(F)c4)cc(C(F)(F)F)n3)ccn2)s1 | 281
99 | COc1cn(-c2ccc(-c3cnn(C(F)F)c3)cc2F)nc(-c2ccnn2-c2ccccc2)c1=O | 185 to 187
